Results on 1 compound are retold here after US4888287A, “Rapid differentiation of fungi from bacteria using polyene antibiotics” (Eastman Kodak Company, priority 1986, dated 1989).

In test [1] the test system is A. flavus. As to the kind of experiment: Inhibition of MTT tetrazolium salt reduction by A. flavus (mold), microtitration plate (Example 3, Table IV). The test is classed as cell-based, Aspergillus flavus (ATCC 20047). Particulars: Aspergillus flavus, 0.5 h, 540 nm, 37° C., 30 min, read-out: Corrected Percent Inhibition. On the procedure:
(§1) gram-negative microorganism Escherichia coli (ATCC 25922), gram-positive microorganism Staphylococcus aureus (ATCC 25923), and Candida albicans yeast cells (ATCC 14053), brain heart infusion broth (BHI) and Sabaroud's dextrose broth (SAB) from Difco Laboratories (Detroit, Michigan, U.S.A.), and Aspergillus flavus (ATCC 20047), a mold from American Type Culture Collection (Rockville, Maryland, U.S.A.).
(§2) E. coli and S. aureus were grown overnight in BHI broth at 37° C. C. albicans and A. flavus were grown overnight at 25° C. in SAB broth with agitation. The cells were harvested by centrifugation, washed and resuspended in 0.05 molar N-2-hydroxyethylpiperazine-N'-2-ethanesulfonic acid (HEPES) buffer (pH 7.8).
The differentiations of yeast and mold from bacteria were carried out in microtitration plates. The cell suspensions used were like those described in Example 2. The reducible compound used was 3-(4,5-dimethyl-2-thiazolyl)-2,5-diphenyl-2H-tetrazolium bromide (MTT). A composition containing MTT was prepared with the following components: 200 μl MTT solution (5 mg/ml methanol), 200 μl glucose solution (10% glucose in water), 200 μl trimethyl-1,4-benzoquinone ETA and 12 ml of HEPES buffer (0.05 molar, pH 7.8).
Test solutions were prepared using the following components: 50 μl HEPES buffer, 50 μl filipin polyene antibiotic (12.5 mg/ml dimethylsulfoxide)(serial dilutions of buffer and antibiotic solutions were performed to obtain various antibiotic concentrations), 50 μl of the appropriate cell suspension, i.e. E. coli (about 10^8 cells/ml), S. aureus (about 10^8 cells/ml), C. albicans (about 10^7 cells/ml) and A. flavus, and […] of the MTT composition noted above. Cell Controls contained all reagents except the antibiotic. Background was measured with buffer. Solution Controls contained all reagents except cells.
Optical density measurements were made at 540 nm using a commercially available spectrophotometer, and the change in optical density (ΔOD) was determined after 30 minutes at 37° C. […] It is apparent that the concentration effective for differentiation of yeast is different than for mold. However, it is well within the skill of a worker in the art to determine the appropriate concentration for a given test.
(In general: Formazan colour is commonly taken as a measure of viable cells.)

The subject of test [2] is E. coli. As to the kind of experiment: Inhibition of RIND XXXV reduction by E. coli, dry analytical element (Example 4, Table V). The test is classed as cell-based, Escherichia coli (ATCC 25922). Particulars: E. coli (gram -), 37° C., 30 min. How it is done: as §1, §2
(§3) Dispersions containing RIND compounds were prepared by dissolving, for example, RIND VII from Table I above in N,N-dimethylformamide (DMF) at 16 mg compound per ml of solvent. An aliquot (250 μl) of the resulting solution was added to 500 μl of TRITON X-100 surfactant. […]
(§4) A standard paper punch was used to cut circular elements (about 0.6 cm in diameter) from the dried strips. […] Buffer solution was applied to separate elements for background readings.
(§5) Relative fluorescence (excitation at 540 nm and emission at 620 nm) was measured using a Dynatech MICROFLUOR reader at zero time and after 30 minutes incubation at 37° C., and the change in relative fluorescence was determined.

Test [3] concerns A. flavus. As to the kind of experiment: Inhibition of RIND XXXV reduction by A. flavus (mold), microtitration plate, fluorescence (Example 2, Table III). The format is cell-based, Aspergillus flavus (ATCC 20047). Particulars: Aspergillus flavus, 0.5 h, 37° C., 30 min, read-out: Corrected Percent Inhibition. On the procedure:
as §1, §2
(§6) Dispersions containing RIND compounds were prepared by dissolving, for example, RIND VII from Table I above in N,N-dimethylformamide (DMF) at 16 mg compound per ml of solvent. An aliquot (250 μl) of the resulting solution was added to 500 μl of TRITON X-100 surfactant. This mixture was then added dropwise with stirring to 25 ml of 0.05 molar HEPES buffer. A solution containing a water-compatible RIND compound (for example, RIND XXXV) was prepared by dissolving the compound in N,N-dimethylformamide which had been acidified with 0.1% sulfuric acid (16 mg RIND compound per ml of solvent).
(§7) A composition was prepared from the following components: 100 μl RIND XXXV solution (16 mg RIND compound per ml of acidified N,N-dimethylformamide), 200 μl glucose solution (10% in water), 200 μl trimethyl-1,4-benzoquinone ETA solution (1.5 mg/ml methanol) and 10 ml HEPES buffer.
(§8) Test solutions were prepared using the following reagents: 50 μl HEPES buffer, 50 μl filipin polyene antibiotic (12.5 mg/ml dimethylsulfoxide)(serial dilutions of buffer and antibiotic solutions were performed to obtain various antibiotic concentrations), 50 μl of the appropriate cell suspensions, that is, E. coli (about 10^8 cells/ml), S. aureus (about 10^8 cells/ml), C. albicans (about 10^7 cells/ml) and A. flavus, and […] of the RIND composition described above.
(§9) Control solutions were prepared as described in Example 1. Relative fluorescence was measured using a Dynatech MICROFLUOR Reader (Dynatech Laboratories, Alexandria, Virginia) modified to read at excitation 540 nm and emission 620 nm, at zero time and after incubation at 37° C. for 30 minutes. The change in relative fluorescence was then determined as the difference of the two values.

Test [4] deals with C. albicans. As to the kind of experiment: Inhibition of RIND XXXV reduction by C. albicans, dry analytical element (Example 4, Table V). The test is classed as cell-based, Candida albicans (ATCC 14053). The following applies: C. albicans (yeast), 37° C., 30 min. How it is done: as §1, §2, §3, §4, §5
Test [5] deals with E. coli. As to the kind of experiment: Inhibition of RIND XXXV reduction by E. coli, microtitration plate, fluorescence (Example 2, Table III). The format is cell-based, Escherichia coli (ATCC 25922). Particulars: Escherichia coli, 0.5 h, E. coli (gram -), 37° C., 30 min, read-out: Corrected Percent Inhibition. How it is done: as §1, §2, §6, §7, §8, §9
The subject of test [6] is C. albicans. As to the kind of experiment: Inhibition of RIND XXXV reduction by C. albicans, microtitration plate, fluorescence (Example 2, Table III). The test is classed as cell-based, Candida albicans (ATCC 14053). The following applies: Candida albicans, 0.5 h, C. albicans (yeast), 37° C., 30 min, read-out: Corrected Percent Inhibition. On the procedure: as §1, §2, §6, §7, §8, §9

Broadly, the inhibition is the drop in the measured response relative to a control, in per cent. Consider `CCCCC[C@@H](O)[C@H]1C(=O)O[C@H](C)[C@@H](O)/C=C/C=C/C=C/C=C/C=C(\C)[C@@H](O)C[C@H](O)C[C@H](O)C[C@H](O)C[C@H](O)C[C@H](O)C[C@@H]1O` [Filipin, filipin], for which the inhibition at 260 µg/mL in the test with A. flavus [1] (0.26 mg/ml) stood at 0%; in the test on A. flavus [3] (0.26 mg/ml), 31.9%; with E. coli [5] (0.26 mg/ml), 0%; in the test with C. albicans [6] (0.26 mg/ml), 56.8%. In addition, the inhibition at 520 µg/mL in the test with A. flavus [1] (0.52 mg/ml) is 10.3%; in the test on A. flavus [3] (0.52 mg/ml), 42.5%; in the test with E. coli [5] (0.52 mg/ml), 0%; in the test on C. albicans [6] (0.52 mg/ml), 71%. Besides, the inhibition at 1040 µg/mL in the test with A. flavus [1] (1.04 mg/ml) is 19%; with A. flavus [3] (1.04 mg/ml), 49.8%; in the test on E. coli [5] (1.04 mg/ml), 2%; in the test on C. albicans [6] (1.04 mg/ml), 80.7%. Moreover, the inhibition at 2080 µg/mL in the test with A. flavus [1] (2.08 mg/ml) was 98.3%; in the test on A. flavus [3] (2.08 mg/ml) it was 64.9%; with E. coli [5] (2.08 mg/ml), 17.6%; in the test on C. albicans [6] (2.08 mg/ml) it was 86.8%. The “Corrected Percent Inhibition” value with E. coli [2] stood at 18%; in the test on C. albicans [4], 76%.
